Target: T1, human FPRL1 (Homo sapiens, UniProt P25090)
T1 construct: expressed in transfected cells; host or cells: HEK293 (JCRB9068, NIBIO), transient transfection with pCMV-script vectors using Lipofectamine 2000
T1 sequence (P25090 1-351): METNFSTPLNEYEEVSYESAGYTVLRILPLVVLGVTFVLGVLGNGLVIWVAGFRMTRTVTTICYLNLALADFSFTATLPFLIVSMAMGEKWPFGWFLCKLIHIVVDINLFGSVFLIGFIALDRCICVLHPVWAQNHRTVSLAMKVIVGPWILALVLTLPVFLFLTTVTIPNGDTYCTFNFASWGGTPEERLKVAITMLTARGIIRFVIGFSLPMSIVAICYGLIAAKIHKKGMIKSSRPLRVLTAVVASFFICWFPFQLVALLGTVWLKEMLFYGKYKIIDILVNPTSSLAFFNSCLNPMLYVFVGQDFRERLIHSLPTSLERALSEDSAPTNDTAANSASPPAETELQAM
Assay: Measurement test of agonist activity on human FPRL1 (test of calcium mobilization in cell, HEK293 with human FPRL1 and Gα15 expression vectors)
Type: cell-based
Settings: calcium mobilization in HEK293 cells with human FPRL1 and Gα15 expression vectors
Procedure, shortened: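 HEK293 transiently co-transfected with human FPRL1 and Gα15, plated 24 h before assay, loaded with Fluo-4 NW dye plus probenecid. Compounds in eight 10-fold dilutions (DMSO stocks 10^−2 to 10^−9 M, then diluted 100-fold in assay buffer); calcium mobilization read on Flexstation for EC50.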

Compound | EC50 [nM]
O=C(Nc1ccc(F)cc1)N[C@@H]1C(=O)N(CCO)C[C@H]1c1cc2c(cc1F)OCC2 (single isomer, unassigned) [EXAMPLE 24-19, (−)-1-[(3S*,4R*)-4-(6-fluoro-2,3-dihydrobenzofuran-5-yl)-1-(2-hydroxyethyl)-2-oxopyrrolidin-3-yl]-3-(4-fluorophenyl)urea] | 0.33
CCOC(=O)CN1C[C@@H](c2cc3c(cc2F)OCC3)[C@H](NC(=O)Nc2ccc(F)cc2)C1=O (single isomer, unassigned) [EXAMPLE 24-20, (−)-2-{(3S*,4R*)-4-(6-fluoro-2,3-dihydrobenzofuran-5-yl)-3-[3-(4-fluorophenyl)ureido]-2-oxopyrrolidin-1-yl}acetic acid ethyl ester] | 0.15
CCOC(=O)C(C)(C)N1C[C@@H](c2cc3c(cc2F)OCC3)[C@H](NC(=O)Nc2ccc(F)cc2)C1=O (single isomer, unassigned) [EXAMPLE 24-21, (−)-2-{(3S*,4R*)-4-(6-fluoro-2,3-dihydrobenzofuran-5-yl)-3-[3-(4-fluorophenyl)ureido]-2-oxopyrrolidin-1-yl}-2-methylpropanoic acid ethyl ester] | 0.45
O=C(Nc1ccc(F)cc1)N[C@@H]1C(=O)N(CC2CC2)C[C@H]1c1cc2c(cc1F)OCC2 (single isomer, unassigned) [EXAMPLE 24-22, (−)-1-[(3S*,4R*)-1-(cyclopropylmethyl)-4-(6-fluoro-2,3-dihydrobenzofuran-5-yl)-2-oxopyrrolidin-3-yl]-3-(4-fluorophenyl)urea] | 1.32
N#CCN1C[C@@H](c2cc3c(cc2F)OCC3)[C@H](NC(=O)Nc2ccc(F)cc2)C1=O (single isomer, unassigned) [EXAMPLE 24-23, (−)-1-[(3S*,4R*)-1-(cyanomethyl)-4-(6-fluoro-2,3-dihydrobenzofuran-5-yl)-2-oxopyrrolidin-3-yl]-3-(4-fluorophenyl)urea] | 0.8
C#Cc1ccc(NC(=O)N[C@@H]2C(=O)NC[C@H]2c2c(F)cc(OC)cc2F)cc1 (single isomer, unassigned) [EXAMPLE 28-4, (−)-1-[(3S*,4R*)-4-(2,6-Difluoro-4-methoxyphenyl)-2-oxopyrrolidin-3-yl]-3-(4-ethynylphenyl) urea] | 1.64
NC(=O)c1cc(F)c([C@@H]2CNC(=O)[C@H]2NC(=O)Nc2ccc(F)cc2)c(F)c1 (single isomer, unassigned) [EXAMPLE 31-1, (−)-3,5-Difluoro-4-{(3R*,4S*)-4-[3-(4-fluorophenyl)ureido]-5-oxopyrrolidin-3-yl}benzamide] | 1.94
COc1ccc([C@@H]2CN/C(=N\OCCO)[C@H]2NC(=O)Nc2ccc(F)cc2)cc1 (single isomer, unassigned) [EXAMPLE 32-4, (−)-1-(4-fluorophenyl)-3-{(3S*,4R*,Z)-2-[(2-hydroxyethoxy)imino]-4-(4-methoxyphenyl)pyrrolidin-3-yl}urea] | 0.17
COc1cc(F)c([C@@H]2CN/C(=N\OCCO)[C@H]2NC(=O)Nc2ccc(C#N)cc2)c(F)c1 (single isomer, unassigned) [EXAMPLE 32-13, (−)-1-(4-cyanophenyl)-3-{(3S*,4R*,Z)-4-(2,6-difluoro-4-methoxyphenyl)-2-[(2-hydroxyethoxy)imino]pyrrolidin-3-yl}urea] | 0.25
COc1cc(F)c([C@@H]2CN/C(=N\OCCO)[C@H]2NC(=O)Nc2cc3ccccc3s2)c(F)c1 (single isomer, unassigned) [EXAMPLE 32-15, (−)-1-(benzo[b]thiophen-2-yl)-3-{(3S*,4R*,Z)-4-(2,6-difluoro-4-methoxyphenyl)-2-[(2-hydroxyethoxy)imino]pyrrolidin-3-yl}urea] | 0.27
COc1ccc([C@@H]2CN/C(=N\O)[C@H]2NC(=O)Nc2ccc(F)cc2)cc1 (single isomer, unassigned) [EXAMPLE 33-1, (−)-1-(4-Fluorophenyl)-3-[(3S*,4R*,Z)-2-(2-hydroxyimino)-4-(4-methoxyphenyl)pyrrolidin-3-yl]urea] | 1.14
COc1cc(F)c([C@@H]2CN/C(=N\O)[C@H]2NC(=O)Nc2ccc(F)cc2)c(F)c1 (single isomer, unassigned) [EXAMPLE 33-2, (−)-1-((3S*,4R*,Z)-4-(2,6-Difluoro-4-methoxyphenyl)-2-(hydroxyimino)pyrrolidin-3-yl)-3-(4-fluorophenyl)urea] | 0.03

The remaining compounds from weak to strong by EC50, led by results:

EC50 [nM] | Compound
3.14 | COc1ccc([C@H]2CN(OC)C(=O)[C@@H]2NC(=O)Nc2ccc(F)cc2)cc1 (single isomer, unassigned) [EXAMPLE 27-1, (+)-1-(4-Fluorophenyl)-3-[(3R*,4S*)-1-methoxy-4-(4-methoxyphenyl)-2-oxopyrrolidin-3-yl]urea]
1.42 | CNc1cc(F)c([C@@H]2CNC(=O)[C@H]2NC(=O)Nc2ccc(F)cc2)c(F)c1 (single isomer, unassigned) [EXAMPLE 28-5, (−)-1-{(3S*,4R*)-4-[2,6-Difluoro-4-(methylamino)phenyl]-2-oxopyrrolidin-3-yl}-3-(4-fluorophenyl) urea]
0.88 | CO/N=C1\NC[C@@H](c2c(F)cc(OC)cc2F)[C@@H]1NC(=O)Nc1cc2ccccc2s1 (single isomer, unassigned) [EXAMPLE 32-11, (−)-1-(benzo[b]thiophen-2-yl)-3-[(3S*,4R*,Z)-4-(2,6-difluoro-4-methoxyphenyl)-2-(methoxyimino)pyrrolidin-3-yl]urea]
0.82 | COc1cc(F)c([C@@H]2CN/C(=N\OCCO)[C@H]2NC(=O)Nc2ccc(Cl)nc2)c(F)c1 (single isomer, unassigned) [EXAMPLE 32-14, (−)-1-(6-chloropyridin-3-yl)-3-{(3S*,4R*,Z)-4-(2,6-difluoro-4-methoxyphenyl)-2-[(2-hydroxyethoxy)imino]pyrrolidin-3-yl}urea]
0.57 | COc1cc(F)c([C@@H]2CN/C(=N\N3CCOCC3)[C@H]2NC(=O)Nc2ccc(F)cc2)c(F)c1 (single isomer, unassigned) [EXAMPLE 32-17, (−)-1-[(3S*,4R*,Z)-4-(2,6-difluoro-4-methoxyphenyl)-2-(morpholinoimino)pyrrolidin-3-yl]-3-(4-fluorophenyl)urea]
0.54 | COc1cc(F)c([C@@H]2CN=C(Nc3ccn(C)n3)[C@H]2NC(=O)Nc2ccc(F)cc2)c(F)c1 (single isomer, unassigned) [EXAMPLE 32-16, (−)-1-{(3R*,4S*)-3-(2,6-difluoro-4-methoxyphenyl)-5-[(1-methyl-1H-pyrazol-3-yl)amino]-3,4-dihydro-2H-pyrrol-4-yl}-3-(4-fluorophenyl)urea]
0.53 | CO/N=C1\NC[C@@H](c2c(F)cc(OC)cc2F)[C@@H]1NC(=O)Nc1ccc(Cl)nc1 (single isomer, unassigned) [EXAMPLE 32-10, (−)-1-(6-chloropyridin-3-yl)-3-[(3S*,4R*,Z)-4-(2,6-difluoro-4-methoxyphenyl)-2-(methoxyimino)pyrrolidin-3-yl]urea]
0.46 | Cc1nnc(CN2C[C@@H](c3cc4c(cc3F)OCC4)[C@H](NC(=O)Nc3ccc(F)cc3)C2=O)o1 (single isomer, unassigned) [EXAMPLE 24-24, (−)-1-{(3S*,4R*)-4-(6-fluoro-2,3-dihydrobenzofuran-5-yl)-1-[(5-methyl-1,3,4-oxadiazol-2-yl)methyl]-2-oxopyrrolidin-3-yl}-3-(4-fluorophenyl)urea]
0.44 | CO/N=C1\NC[C@@H](c2c(F)cc(OC)cc2F)[C@@H]1NC(=O)Nc1ccc(C)cc1 (single isomer, unassigned) [EXAMPLE 32-8, (−)-1-[(3S*,4R*,Z)-4-(2,6-difluoro-4-methoxyphenyl)-2-(methoxyimino)pyrrolidin-3-yl]-3-(p-tolyl)urea]
0.3 | CO/N=C1\NC[C@@H](c2c(F)cc(OC)cc2F)[C@@H]1NC(=O)Nc1ccc(C#N)cc1 (single isomer, unassigned) [EXAMPLE 32-9, (−)-1-(4-cyanphenyl)-3-[(3S*,4R*,Z)-4-(2,6-difluoro-4-methoxyphenyl)-2-(methoxyimino)pyrrolidin-3-yl]urea]
0.13 | O=C(Nc1ccc(F)cc1)N[C@@H]1/C(=N/OCCO)NC[C@H]1c1cc2c(cc1F)OCC2 (single isomer, unassigned) [EXAMPLE 32-19, (−)-1-((3S*,4R*,Z)-4-(6-fluoro-2,3-dihydrobenzofuran-5-yl)-2-[(2-hydroxyethoxy)imino]pyrrolidin-3-yl)-3-(4-fluorophenyl)urea]
0.1 | COc1cc(F)c([C@@H]2CN(OC)C(=O)[C@H]2NC(=O)Nc2ccc(F)cc2)c(F)c1 (single isomer, unassigned) [EXAMPLE 27-2, (−)-1-[(3S*,4R*)-4-(2,6-Difluoro-4-methoxyphenyl)-1-methoxy-2-oxopyrrolidin-3-yl]-3-(4-fluorophenyl)urea]
0.03 | CO/N=C1\NC[C@@H](c2ccc(OC)cc2F)[C@@H]1NC(=O)Nc1ccc(F)cc1 (single isomer, unassigned) [EXAMPLE 32-2, (−)-1-[(3S*,4R*,Z)-4-(2-fluoro-4-methoxyphenyl)-2-(methoxyimino)pyrrolidin-3-yl]-3-(4-fluorophenyl)urea]
0.01 | COc1ccc([C@@H]2CN(CCO)C(=O)[C@H]2NC(=O)Nc2ccc(Cl)cc2)cc1 (single isomer, unassigned) [Example 15-1A, (−)-trans-1-(4-Chlorophenyl)-3-[1-(2-hydroxyethyl)-4-(4-methoxyphenyl)-2-oxopyrrolidin-3-yl]urea]

Source: patent US9822069B2, “Urea derivative or pharmacologically acceptable salt thereof” (KYORIN PHARMACEUTICAL CO. LTD., priority 2013, dated 2017)
